For the experiment, the target named is T1, VHL (GST-VBC) (Homo sapiens, UniProt P40337).
T1 construct: made in house; host or cells: E. coli BL21(DE3)
Briefly: SPR binary affinity, PROTAC on immobilized GST-VBC. It counts as binding. The method, then:
FIGS. 16A, 16B, and 16C. SPR curves assessing binary and ternary interactions. […] (C) SPR kinetic evaluation of p38δ:compound 46:VHL and p38δ:compound 50:VHL ternary complex interactions. Equimolar p38δ:PROTAC mixtures were injected onto immobilized GST-VBC and allowed to dissociate overtime. […] See Table 12 for a summary of the binary and ternary affinity and kinetic measurements.
Next, with the same setup, equimolar p38δ:PROTAC dilutions were successively injected onto immobilized VHL for 60 seconds, prior to monitoring complex dissociation for the remaining 300 seconds. […]
For the expression of GST-tagged VHL:Elongin B:Elongin C (herein referred to as GST-VHL), wild-type human VHL, Elongin B, and Elongin C were co-expressed in E. coli. […] Eluted protein was assessed for identity and purity via coomassie staining of sample run on an SDS-PAGE gel and pure elutions were pooled, concentrated, and diluted in ion-exchange buffer A (30 mM Tris pH 8.0, 5% glycerol, 1 mM DTT) until the salt concentration was 50 mM, before loading onto a Mono Q 5/50 GL column (GE Life Sciences). […] Fractions were then assessed for purity via coomassie, pooled, concentrated, and run on a Superdex-200 column (GE Life Sciences) using size-exclusion buffer (30 mM Tris pH 8.0, 100 mM NaCl, 10% glycerol, 1 mM DTT). […]

T1 sequence (P40337 whole entry): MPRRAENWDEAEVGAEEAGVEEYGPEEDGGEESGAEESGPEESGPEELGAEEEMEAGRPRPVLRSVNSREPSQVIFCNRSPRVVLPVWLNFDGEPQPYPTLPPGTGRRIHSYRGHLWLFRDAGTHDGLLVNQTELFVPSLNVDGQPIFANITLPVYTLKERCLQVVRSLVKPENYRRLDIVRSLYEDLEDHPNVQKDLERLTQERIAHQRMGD
T1 sequence (Q15370 whole entry partner): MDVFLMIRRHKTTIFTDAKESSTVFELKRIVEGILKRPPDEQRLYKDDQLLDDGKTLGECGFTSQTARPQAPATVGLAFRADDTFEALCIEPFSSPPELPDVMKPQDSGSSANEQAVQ
T1 sequence (Q15369 whole entry partner): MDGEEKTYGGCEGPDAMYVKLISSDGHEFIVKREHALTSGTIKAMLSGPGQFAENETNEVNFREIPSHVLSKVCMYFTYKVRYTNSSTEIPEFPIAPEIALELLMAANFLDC

For the compound `COc1cc2c(Oc3ccc(NC(=O)C4(C(=O)Nc5ccc(F)cc5)CC4)cc3F)ccnc2cc1OCCOCCOCCOc1cc(-c2scnc2C)ccc1CNC(=O)[C@@H]1C[C@@H](O)CN1C(=O)[C@H](C(C)C)N1Cc2ccccc2C1=O` [compound 46], the Kd (commonly the equilibrium constant for the complex coming apart) was found to be 3.5 µM. For `COc1cc2c(Oc3ccc(NC(=O)C4(C(=O)Nc5ccc(F)cc5)CC4)cc3F)ccnc2cc1OCCCCOCCCCOCC(=O)N[C@H](C(=O)N1C[C@H](O)C[C@H]1C(=O)NCc1ccc(-c2scnc2C)cc1)C(C)(C)C` [compound 50, N-(3-fluoro-4-((7-(4-(4-(2-(((S)-1-((2S,4R)-4-hydroxy-2-((4-(4-methylthiazol-5-yl)benzyl)carbamoyl)pyrrolidin-1-yl)-3,3-dimethyl-1-oxobutan-2-yl)amino)-2-oxoethoxy)butoxy)buto-xy)-6-methoxyquinolin-4-yl)oxy)phenyl)-N-(4-fluorophenyl)cyclopropane-1,1-dicarboxa-mide] the value was 5 µM.

(Values after US20180353501A1 (Arvinas, Inc., priority 2017, published 2018).)
